Here are results for six substances from publication PMC4188015 (Acta Crystallographica Section D: Biological Crystallography, 2014).

Read-outs that look alike come from different tables or passages of the source.

For assay [1] the following is noted: ITC; n = 8; ref Antolikova et al. (2011); listed as wild-type human insulin; read-out: K diss (dimer↔monomer); cited from earlier work.
The target in a further assay is IR site 2. As to conditions: ref Kiselyov et al., 2009; read-out: K d, IR low-affinity site 2; cited from earlier work. From the text:
(§1) Extensive mutagenesis and cross-linking studies of both insulin and IR led to the discovery and mapping of two sites on the IR that are responsible for engaging with the hormone. […] The hormone–receptor interaction events are comp ...

The next assay relates to IR-B. As to conditions: single mutation; ref Glendorf et al. (2011); cited from earlier work. From the text: The IR-B:IR-A specificity ratio of insulin analogues is of considerable interest owing to IR-B being the dominant (∼90–95%) receptor isoform in the liver (Moller et al., 1989[▶]). This, together with the anatomic proximity of the pancreas and the liver (short hepatic portal vein connectivity), makes the liver the major glucose homeostatic organ.

The test system of the next assay is IR. The conditions noted are these: ref Žáková et al., 2013; cited from earlier work. From the text: The full-length insulin B26-site mutants AsnB26, AspB26, PheB26, GlnB26 and GlyB26 have been prepared and characterized. […] In the cases of [PheB26]-insulin and [GlyB26]-insulin, we aimed to investigate the structural consequences of the loss of the TyrB26 side-chain hydroxyl group or the whole TyrB26 side chain, respectively. The affinities of the analogues for the IR-A isoform (IM-9 lymphocytes) and of selected ...

The subject of assay [2] is both rat IR-A and IR-B isoforms. Put plainly: Receptor binding, rat adipocyte plasma membranes. As for the experimental part:
Receptor-binding studies with the insulin receptor in plasma membranes containing both rat IR-A and IR-B isoforms prepared from epididymal adipose tissue of adult male Wistar rats were performed and analyzed according to Žáková et al. (2008[▶]). Binding data were analyzed using GraphPad Prism 5. Half-maximal inhibition values of binding of [^125I]-insulin to the receptor (IC50) were obtained using a nonlinear regression method and a one-site fitting program.

A short description of assay [3]: Isothermal microcalorimetry (ITC) of dimerization (dimer-monomer dissociation). It is filed as physicochemical. The conditions noted are these: mean ± spread, n = 3, read-out: K diss (dimer↔monomer).
Method: Investigations of the dimerization abilities of selected insulin analogues were performed as described in detail previously (Antolikova et al., 2011[▶]).
In assay [4] the test system is both rat IR-A and IR-B isoforms. As to conditions: rat adipocytes, ref Jiracek et al. (2010), cited from earlier work. The text has this: In the cases of [PheB26]-insulin and [GlyB26]-insulin, we aimed to investigate the structural consequences of the loss of the TyrB26 side-chain hydroxyl group or the whole TyrB26 side chain, respectively. The affinities of the analogues for the IR-A isoform (IM-9 lymphocytes) and of selected ...

In a further assay the target is IR-A. As to conditions: ref Morcavallo et al., 2012; read-out: K d for IR-A; cited from earlier work.
Text: as §1

Consider Human insulin, for which the Kd in assay [1] is ~9000 nM; at IR site 2, ~400 nM.
Regarding [AsnB25]-insulin, the IR-B specificity result in the assay with IR-B is reported as “doubling of the IR-B specificity”.
For the substance [GluB26,LysB28,ProB29]-insulin, in the assay on IR, the “binding affinity relative to human insulin” value is 193%.
What is called IC50 is the concentration that gives 50% inhibition. On to [GlyB26]-insulin, for which the “Potency (relative receptor-binding affinity), rat IR-A and IR-B” value in assay [2] ((IC50 of human insulin/IC50 of analogue) × 100, rat adipocytes) is listed as ~70%. In addition, in assay [2] (half-maximal inhibition of binding of human 125I-TyrA14 insulin, rat adipose plasma membranes, mean ± SE (n), SEM, read-out: IC50 ± SE for both rat IR-A and IR-B in rat adipocytes), the IC50 was 1.16 ± 0.12 nM.
Regarding [PheB26]-insulin, the Kd in assay [3] was 27200 ± 7400 nM. Besides, the figures for the “Potency (relative receptor-binding affinity), rat IR-A and IR-B” value in assay [4] and in assay [4] (listed as PheB26) were 46 ^¶ % and “less than 50%”, respectively.
Turning to insulin-like growth factor II [IGF-II], the Kd at IR-A was ~4 nM.
